Laboratory results from patent publication US20160235708A1, “TOPICAL PIGMENTORY COMPOSITION” (priority 2013, published 2016).

Experiments:
[1] = system: normal skin surrounding the vitiligo lesion; assay: Topical psoralen / PUVA therapy of vitiligo lesions: skin reaction around the lesion; type: in vivo
Description: FIG. 1 A depicts hyper pigmentation surrounding vitiligo lesion following topical Psoralen therapy

vitiligo = settings: monotherapy without ultra violet exposure; personal observation of N Ostovari; cited from earlier work

| SMILES | Pigmentory change surrounding the vitiligo lesion (FIG. 1A) ([1]; following topical use) | Skin reaction surrounding the vitiligo lesion (FIG. 1B) ([1]; two applications of 1.0% solution at alternate days, topical PUVA therapy) | Repigmenting potential (vitiligo) |
| --- | --- | --- | --- |
| COc1c2occc2cc2ccc(=O)oc12 [8 methoxypsoralen, 9-methoxy-7H-furo[3,2-g][1]-benzopyran-7-one] | hyperpigmentation | Erythematous photo toxic reaction | – |
| C=CC[C@@H]1/C=C(\C)C[C@H](C)C[C@H](OC)[C@H]2O[C@@](O)(C(=O)C(=O)N3CCCC[C@H]3C(=O)O[C@H](/C(C)=C/[C@@H]3CC[C@@H](O)[C@H](OC)C3)[C@H](C)[C@@H](O)CC1=O)[C@H](C)C[C@@H]2OC [tacrolimus] | – | – | little or no repigmenting potential |
